According to patent US20230227466A1, “SUBSTITUTED THIENOPYRIMIDINES THAT INTERACT WITH THE RAS SUPERFAMILY FOR THE TREATMENT OF CANCERS, INFLAMMATORY DISEASES, RASOPATHIES, AND FIBROTIC DISEASE” (SHY Therapeutics, LLC, priority 2020, published 2023):

Key:
[1] = tested on: Akt phosphorylation in Panc-1 cells; test: Western AKT cell-based phosphorylation assay; design: species or system human; conditions: at 10 μM, values in brackets < > are activation %, not inhibition
Procedure: Human Tumor-Derived Pancreatic Cancer Cell Line Panc-1 was Purchased from
(§1) American Type Culture Collection and grown in complete DMEM-High Glucose supplemented with penicillin (100 U/mL), streptomycin (100 μg/mL), and 10% heat-inactivated FBS at 37° C. in a humidified incubator with 5% CO2.
(§2) Method: Cells were plated at 350000 cells/well density in a 12-well plate, allowed 3 hours to adhere to the plate, then starved in the appropriate medium in the presence of 0.5% FBS overnight. The small molecules to be tested were added to the cells in the final concentration of 10 μM in the presence of 0.3% DMSO for 6 hours incubation at 37° C. Next, cells were stimulated with 1.5 ng/ml EGF for 15 minutes then cells were lysed with lysis buffer containing 1% Triton X-100, EDTA, and Halt™ Protease & Phosphatase Inhibitor Cocktail (Thermo Scientific). Protein concentration was assessed by BCA protein assay (Thermo Scientific). Phosphorylation level of Akt was determined by western blot.
(§3) Western blot protocol: Equal amounts of protein (15-50 μg) were separated by SDS-PAGE and transferred to nitrocellulose membranes (Invitrogen by Thermo Fisher Scientific). The membrane was stained with Ponceau S Stain (Boston BioProducts) to verify uniform protein loading. Membranes were blocked with 10% milk and phosphorylation levels of Akt were assessed by incubating overnight at 4° C. with anti-phospho-Akt (Ser473) antibody (Cell Signaling) followed by HRP-conjugated secondary antibody (Jackson Immunoresearch, West Grove, Pa.). Bands were incubated in Amersham ECL Prime Western Blotting Detection Reagent (GE Healthcare) and visualized using the ChemiDoc MP imaging system (Bio-Rad).

[2] = tested on: ERK1/2 phosphorylation in Panc-1 cells; test: Western ERK1/2 cell-based phosphorylation assay; design: species or system human; conditions: at 10 μM, values in brackets < > are activation %, not inhibition
Procedure: as §1, with “Cell lines: Human tumor-derived pancreatic cancer cell line Panc-1 was purchased from American” for “American”, “Glucose,” for “Glucose”
as §2, with “C. For IC50 value determination, serial dilutions of compounds were added to cells under the same conditions.” for “C.”, “ERK1/2” for “Akt”
as §3, with “ERK1/2” for “Akt”, “anti-phospho-p44/42 (Thr202/Tyr204)” for “anti-phospho-Akt (Ser473)”, “(Bio-Rad). Protocol for Western AKT cell-based phosphorylation assay” for “(Bio-Rad).”

Cc1c(-c2ccn(C(C)C)n2)sc2nc(-c3nccn3C)nc(NC[C@H]3CCC(=O)N3)c12 [Compound 52, (R)-5-(((6-(1-Isopropyl-1H-pyrazol-3-yl)-5-methyl-2-(1-methyl-1H-imidazol-2-yl)thieno[2,3-d]pyrimidin-4-yl)amino)methyl)pyrrolidin-2-one]
% inh of AKT phosphorylation in PANC-1 [1]: 0 (0% inhibition) | % inh of ERK1/2 phosphorylation in PANC-1 [2]: 0 (0% inhibition)

CO[C@@H]1CC[C@H](Nc2nc(-c3nccn3C)nc3sc(-c4ccn(C(C)C)n4)c(C)c23)C1 [Compound 31, 6-(1-Isopropyl-1H-pyrazol-3-yl)-N-((1S,3R)-3-methoxycyclopentyl)-5-methyl-2-(1-methyl-1H-imidazol-2-yl)thieno[2,3-d]pyrimidin-4-amine]
% inh of AKT phosphorylation in PANC-1 [1]: 0 (0% inhibition) | % inh of ERK1/2 phosphorylation in PANC-1 [2]: D (76-100% inhibition)

COCCn1ccnc1-c1nc(N[C@H]2C[C@@H](OC)C2)c2ccsc2n1 [Compound 9, N-((1s,3s)-3-Methoxycyclobutyl)-2-(1-(2-methoxyethyl)-1H-imidazol-2-yl)thieno[2,3-d]pyrimidin-4-amine]
% inh of AKT phosphorylation in PANC-1 [1]: 0 (0% inhibition) | % inh of ERK1/2 phosphorylation in PANC-1 [2]: 0 (0% inhibition)

CO[C@@H]1CCCN(c2nc(-c3nccn3C)nc3sc(-c4ccn(C(C)C)n4)c(C)c23)C1 [Compound 50, (R)-6-(1-Isopropyl-1H-pyrazol-3-yl)-4-(3-methoxypiperidin-1-yl)-5-methyl-2-(1-methyl-1H-imidazol-2-yl)thieno[2,3-d]pyrimidine]
% inh of AKT phosphorylation in PANC-1 [1]: D (76-100% inhibition) | % inh of ERK1/2 phosphorylation in PANC-1 [2]: D (76-100% inhibition)

COc1cccc(Nc2nc(-c3nccn3C)nc3sc(-c4ccn(C(C)C)n4)c(C)c23)n1.Cl [Compound 65, 6-(1-Isopropyl-1H-pyrazol-3-yl)-N-(6-methoxypyridin-2-yl)-5-methyl-2-(1-methyl-1H-imidazol-2-yl)thieno[2,3-d]pyrimidin-4-amine hydrochloride salt]
% inh of AKT phosphorylation in PANC-1 [1]: B (26-50% inhibition) | % inh of ERK1/2 phosphorylation in PANC-1 [2]: D (76-100% inhibition)

CO[C@H]1CC[C@@H](Nc2nc(-c3nccn3C)nc3sc(-c4ccn(C(C)C)n4)c(C)c23)C1 [Compound 32, 6-(1-Isopropyl-1H-pyrazol-3-yl)-N-((1R,3S)-3-methoxycyclopentyl)-5-methyl-2-(1-methyl-1H-imidazol-2-yl)thieno[2,3-d]pyrimidin-4-amine]
% inh of AKT phosphorylation in PANC-1 [1]: 0 (0% inhibition) | % inh of ERK1/2 phosphorylation in PANC-1 [2]: D (76-100% inhibition)

COc1cccc(Nc2nc(-c3nccn3C)nc3sc(-c4ccn(C(C)C)n4)c(C)c23)c1 [Compound 64, 6-(1-Isopropyl-1H-pyrazol-3-yl)-N-(3-methoxyphenyl)-5-methyl-2-(1-methyl-1H-imidazol-2-yl)thieno[2,3-d]pyrimidin-4-amine]
% inh of AKT phosphorylation in PANC-1 [1]: B (26-50% inhibition) | % inh of ERK1/2 phosphorylation in PANC-1 [2]: D (76-100% inhibition)

CO[C@H]1CC[C@@H](Nc2nc(-c3nccn3C)nc3sc(-c4ccn(C(C)C)n4)c(C)c23)CC1 [Compound 55]
% inh of AKT phosphorylation in PANC-1 [1]: <A> | % inh of ERK1/2 phosphorylation in PANC-1 [2]: D (76-100% inhibition)

Cc1c(-c2ccn(C(C)C)n2)sc2nc(-c3nccn3C)nc(NCc3n[nH]c(=O)n3C)c12 [Compound 60, 5-(((6-(1-Isopropyl-1H-pyrazol-3-yl)-5-methyl-2-(1-methyl-1H-imidazol-2-yl)thieno[2,3-d]pyrimidin-4-yl)amino)methyl)-4-methyl-2,4-dihydro-3H-1,2,4-triazol-3-one]
% inh of AKT phosphorylation in PANC-1 [1]: 0 (0% inhibition) | % inh of ERK1/2 phosphorylation in PANC-1 [2]: 0 (0% inhibition)

CC(C)OCCn1ccnc1-c1nc(O)c2scc(-c3ccccn3)c2n1 [Compound 82, 2-(1-(2-Isopropoxyethyl)-1H-imidazol-2-yl)-7-(pyridin-2-yl)thieno[3,2-d]pyrimidin-4-ol]
% inh of AKT phosphorylation in PANC-1 [1]: <D> | % inh of ERK1/2 phosphorylation in PANC-1 [2]: A (1-25% inhibition)

CO[C@H]1C[C@@H](CNc2nc(-c3nccn3C)nc3sc(-c4ccn(C(C)C)n4)c(C)c23)C1 [Compound 47, 6-(1-Isopropyl-1H-pyrazol-3-yl)-N-(((1s,3s)-3-methoxycyclobutyl)methyl)-5-methyl-2-(1-methyl-1H-imidazol-2-yl)thieno[2,3-d]pyrimidin-4-amine]
% inh of AKT phosphorylation in PANC-1 [1]: 0 (0% inhibition) | % inh of ERK1/2 phosphorylation in PANC-1 [2]: D (76-100% inhibition)

CO[C@H]1CC[C@H](Nc2nc(-c3nccn3C)nc3sc(-c4ccn(C(C)C)n4)c(C)c23)CC1 [Compound 54]
% inh of AKT phosphorylation in PANC-1 [1]: <A> | % inh of ERK1/2 phosphorylation in PANC-1 [2]: D (76-100% inhibition)

COCC1CN(c2nc(-c3nccn3C)nc3sc(-c4ccn(C(C)C)n4)c(C)c23)CCO1 (racemic) [Compound 45, rac-4-(6-(1-Isopropyl-1H-pyrazol-3-yl)-5-methyl-2-(1-methyl-1H-imidazol-2-yl)thieno[2,3-d]pyrimidin-4-yl)-2-(methoxymethyl)morpholine]
% inh of AKT phosphorylation in PANC-1 [1]: <D> | % inh of ERK1/2 phosphorylation in PANC-1 [2]: B (26-50% inhibition)

COCCNC(=O)c1nc(N[C@@H]2CC[C@H](OC)C2)c2ccsc2n1 (racemic) [Compound 14, rac-4-(((1R,3S)-3-Methoxycyclopentyl)amino)-N-(2-methoxyethyl)thieno[2,3-d]pyrimidine-2-carboxamide]
% inh of AKT phosphorylation in PANC-1 [1]: 0 (0% inhibition) | % inh of ERK1/2 phosphorylation in PANC-1 [2]: 0 (0% inhibition)

Cc1c(-c2ccn(C(C)C)n2)sc2nc(-c3nccn3C)nc(NCCc3nnn[nH]3)c12 [Compound 46, N-(2-(1H-Tetrazol-5-yl)ethyl)-6-(1-isopropyl-1H-pyrazol-3-yl)-5-methyl-2-(1-methyl-1H-imidazol-2-yl)thieno[2,3-d]pyrimidin-4-amine]
% inh of AKT phosphorylation in PANC-1 [1]: A (1-25% inhibition) | % inh of ERK1/2 phosphorylation in PANC-1 [2]: 0 (0% inhibition)

CO[C@H]1C[C@H](CNc2nc(-c3nccn3C)nc3sc(-c4ccn(C(C)C)n4)c(C)c23)C1 [Compound 48, 6-(1-Isopropyl-1H-pyrazol-3-yl)-N-(((1r,3r)-3-methoxycyclobutyl)methyl)-5-methyl-2-(1-methyl-1H-imidazol-2-yl)thieno[2,3-d]pyrimidin-4-amine]
% inh of AKT phosphorylation in PANC-1 [1]: 0 (0% inhibition) | % inh of ERK1/2 phosphorylation in PANC-1 [2]: D (76-100% inhibition)

Cc1sc2c(O)nc(-c3ccccn3)nc2c1-c1ccccn1 [Compound 26, 6-Methyl-2,7-di(pyridin-2-yl)thieno[3,2-d]pyrimidin-4-ol]
% inh of AKT phosphorylation in PANC-1 [1]: 0 (0% inhibition) | % inh of ERK1/2 phosphorylation in PANC-1 [2]: 0 (0% inhibition)

COc1cc(Nc2nc(-c3nccn3C)nc3sc(-c4ccn(C(C)C)n4)c(C)c23)ccn1 [Compound 67, 6-(1-Isopropyl-1H-pyrazol-3-yl)-N-(2-methoxypyridin-4-yl)-5-methyl-2-(1-methyl-1H-imidazol-2-yl)thieno[2,3-d]pyrimidin-4-amine]
% inh of AKT phosphorylation in PANC-1 [1]: <A> | % inh of ERK1/2 phosphorylation in PANC-1 [2]: 0 (0% inhibition)

Cn1ccnc1-c1nc(O)c2scc(-c3ncccc3F)c2n1 [Compound 30, 7-(3-Fluoropyridin-2-yl)-2-(1-methyl-1H-imidazol-2-yl)thieno[3,2-d]pyrimidin-4-ol]
% inh of AKT phosphorylation in PANC-1 [1]: 0 (0% inhibition) | % inh of ERK1/2 phosphorylation in PANC-1 [2]: 0 (0% inhibition)

NC(=O)c1nc(O)c2scc(-c3ccccn3)c2n1 [Compound 18, 4-Hydroxy-7-(pyridin-2-yl)thieno[3,2-d]pyrimidine-2-carboxamide]
% inh of AKT phosphorylation in PANC-1 [1]: 0 (0% inhibition) | % inh of ERK1/2 phosphorylation in PANC-1 [2]: 0 (0% inhibition)
